Square brackets hold non-standard residues; d marks the D form. Ends that are not written are not given here. pS = N[C@@H](COP(=O)(O)O)C(=O)O
How the values were obtained:
[1] = JP1 permeability experiment (FITC-JP1 applied to depilated skin); details: 1% FITC-JP1 solution applied to dorsal depilated area
Procedure: (§4) In this Example, to elucidate the mechanism of JP1 penetrating the skin and acting on the hair follicle, a 14-day AGA modeling was performed according to the model design strategy of Example 1 above. Thereafter, a 1% FITC-JP1 solution was applied to the dorsal depilated area of the mice in a light-avoidance environment. Five time points were set at 0.5, 1, 2, 4 and 8 h for observation. The fresh skin tissue was made into frozen sections, and the penetration pathway of JP1 in the skin tissue and the amount of aggregation in the hair follicles were observed under an inverted fluorescence microscope.
(§5) 15 C57BL/6J male mice were dorsally depilated after two weeks of continuous TP injection. A 1% FITC-JP1 solution was applied locally to the depilated area of the mice on the 1st day after depilation, no light, in five groups of 0.5 h, 1 h, 2 h, 4 h and 8 h (n=3).
(§6) The back skin was removed at the corresponding time points and fixed in 4% paraformaldehyde. After 48 h of fixation, the skin tissue was successively dehydrated in 20% and 30% sucrose solution for 2 days each. After gradient dehydration, sections (20 μm) were made using a frozen microtome. Zeiss inverted fluorescence microscope was used to photograph the fluorescent sections.

Lef1 = experiment: qPCR of Lef1 mRNA in skin tissue; format: in vivo, mouse
Procedure: (§1) 6.1) Sample preparation: 15-20 mg of mouse skin tissue was placed in a 1.5 mL centrifuge tube, and 600 μL of pre-cooled lysate was quickly added, and homogenized with an electric homogenizer. The homogenate obtained was blown gently 10 times, left at room temperature for 3-5 min, then centrifuged at 14,000×g for 5 min, and the supernatant was transferred to a new centrifuge tube with a pipette gun of suitable volume.
(§2) 7.1) Dilute the specific gene amplification primers to 10 µM in ddH2O, prepare the qPCR reaction system according to the instructions in the kit and add them sequentially into a 384-well plate.
(§3) 7.3) Relative mRNA expression levels of genes were calculated by the […] relative quantification method using GAPDH as an internal reference.

MYC = experiment: qPCR of MYC mRNA in skin tissue; format: in vivo, mouse; details: P>0.05
Procedure: as §2, §3

Wnt signaling pathway = experiment: Proteomics and protein phosphorylation sequencing of skin tissue (KEGG, GSEA); format: in vivo, mouse
Procedure: Appropriate amounts of mouse skin tissues (n=3) from the model group and 1% JP1 group were added to a mortar pre-cooled with liquid nitrogen, and ground thoroughly with liquid nitrogen into powders. The samples were separately added to lysis buffer and lysed by ultrasonication. The centrifugation was performed at 4° C., 12,000×g for 10 min, and protein concentration was determined by BCA. Trypsin digestion was followed by liquid chromatography-mass spectrometry serial analysis.

[2] = test system: TP-induced AGA model mice; experiment: TP-induced AGA model, Animal model I (JP1 intraperitoneal or topical skin-coating); format: in vivo, C57BL/6J male mice
From the text: C57BL/6 mice were selected for modeling in this example according to the first design scheme (FIG. 1A). For more details, see “Animal model I” of “1. TP-induced AGA model” in “Experimental Methods” below.
The mice used in this study were 5-week-old C57BL/6J male mice (18-20 g), which were purchased from Jiangsu Jicui Pharmachem Biotechnology Co. All the animals used in the experiments were housed in the SPF-level environment of the Medical Laboratory Animal Center of Nanjing Medical University, and the relevant animal experimental operations were approved by the Animal Ethics Committee of Nanjing Medical University. The control group was left untreated, and the other groups were injected with TP subcutaneously on their backs every day. Two weeks later, the hair on the backs of the mice was shaved with an electric razor, covering an area of 2 cm×4 cm, and then the residual hair was removed with a hair removal cream. The subcutaneous injections of TP on the shaved backs of the mice in the AGA model was continued until the end of the experimental period, and the administration of TP in each of the treatment groups was begun on the 1st day of the dehairing process.
In addition to the normal control group (denoted as control) n=3, all mice injected subcutaneously with TP were randomly divided into the following groups (n=3): the model group (denoted as model), the 1 wt. % JP1 and 2% JP1 (intraperitoneal), the 1% JP1 and 2% JP1 (topical skin-coating, denoted as apply), the 5% minoxidil group, and the 2% JP1 (intraperitoneal) combined with 5% minoxidil group. The mice were administered continuously for 35 days, euthanized.
Mice were weighed every two days during the experiment. Skin color was assessed against skin score charts. The mice were euthanized and treated at the end of the experiment, and skin tissues were taken from the dorsal decorticated area of the mice. Some of the tissues were fixed with 4% paraformaldehyde solution and then paraffin sections were made for H&E or immunofluorescence staining, etc., and some of the tissues were stored in the refrigerator at −80° C. for relevant molecular expression assays (qRT-PCR, Western Blot, IP, etc.).
8.1) Sampling and fixation: After the experiment, skin tissue was taken from the depilated area on the back of the mouse and placed in a 10 mL EP tube. 4% paraformaldehyde was added to the EP tube, and all tissues were immersed to denature and coagulate the proteins of the skin tissue. The original morphology and structure of the cells were maintained.
8.6) H&E staining: the sections pretreated in distilled water were put into aqueous hematoxylin solution for a few minutes for staining. The color was separated in acid water and ammonia for a few seconds each. After rinsing in running water for 1 h, the sections were placed in distilled water for a few moments. The sections were dehydrated in 70% and 90% alcohol for 10 min each, and stained in alcoholic eosin stain for 2-3 min.

integrin αv = experiment: Integrin αv expression in skin tissue (qPCR, immunoblotting, immunofluorescence); format: in vivo, mouse
From the text: In this example, the mRNA expression levels of RGD-targeting molecules in the skin tissues of three groups of mice, namely, the AGA model control group, the model group and the JP1-treated group, were further examined.
To verify whether JP1 targeted integrin molecules are localized in hair follicles in the skin tissue, this example detected the expression levels, tissue localization, and distribution of integrin αv and integrin β1 in the skin tissue of the mouse model in Example 6 using immunofluorescence staining.
4.1) Protein extraction: 70 mg of skin tissue was placed in a 1.5 mL centrifuge tube, and 500 μL of tissue lysate RIPA containing protease inhibitor and phosphatase inhibitor was added. The tissue was placed on an ice box, pulverized by a tissue grinder, and then ultrasonically crushed to obtain a tissue suspension, which was then placed in a rotary windmill at 4° C. to be lysed for 2 h. The centrifuge was set at 12,000×g, 4° C., centrifuged for 15 min, and the supernatant was collected as the total protein.
5.1) Heating of protein samples: the total protein content of each tissue was 50 μg; calculate the volume of a corresponding protein sample, make up the volume with saline to 16 μL, then add 4 μL of 5×SDS sampling buffer, heat at 100° C. for 5 min, and then cool at room temperature and store at −20° C.
as §2, §3
9.5) Primary antibody incubation: the tissue was circled by the histochemical pen, about 50 μL of primary antibody was added dropwise to the tissue, and incubated in a wet box overnight at 4° C., washed 3 times with PBS.

[3] = mouse, in vivo
Procedure: as §4, §5, §6

SRD5A2 = experiment: qPCR of SRD5A2 mRNA in skin tissue of model mice; format: in vivo, mouse; details: model II, P>0.05
Procedure: as §1
6.10) Reverse transcribe the RNA into cDNA according to the instructions of the reverse transcription kit, and then carry out subsequent experiments or store at −20° C. for later use.
as §2, §3

E2F1 = experiment: qPCR of E2F1 mRNA in skin tissue; format: in vivo, mouse; details: after JP1 intervention, P<0.01
Procedure: as §2, §3

[4] = H&E longitudinal section, each JP1 treatment group vs model and solvent groups

Substance: FPGSDRF-RGD (FPG[pS]DRFRGD) [JP1, amino acid S is phosphorylated; JWA peptide]
- fluorescence brightness at 8 h [1]: obviously weakened
- distribution of the drug in skin at 0.5 h ([1]; fluorescence): basically covered the surface of the skin
- Lef1 mRNA expression vs model group (Lef1): increased
- MYC mRNA level, difference between groups (MYC): not statistically significant
- KEGG signaling pathway analysis, differences 1% JP1 vs model group (Wnt signaling pathway; skin tissue, proteomics): mainly enriched in the Wnt signaling pathway
- GSEA analysis of Wnt/β-catenin signaling pathway (Wnt signaling pathway; skin tissues of JP1-treated mice): enriched
- hair growth index (skin color score) vs model group ([2]; 1% JP1, intraperitoneal injection, P>0.05): statistically not significant
- hair growth index (skin color score) vs solvent group (vehicle (apply)) ([2]; 2% JP1 (apply), topical skin coating): higher than that of the solvent group
- hair growth index (skin color score) vs model group ([2]; 2% JP1 (apply), topical skin coating, P<0.05): higher than that of the model group
- hair growth index (skin color score) vs model group ([2]; 2% JP1, intraperitoneal injection, P<0.001): significantly higher than that of the model group
- hair growth (skin appearance on the back) ([2]; AGA mice, JP1 injected intraperitoneally or applied to the skin): promoted hair growth
- dermal layer thickness [2, 4]: increased dermal layer thickness
- hair follicle length [2, 4]: longer hair follicle length
- difference in body weight gain between groups ([2]; during mouse modeling, P>0.05): not statistically significant
- effect on hair follicle cycle relative to minoxidil ([2]; skin of AGA model mice): comparable to the effect of minoxidil
- hair follicle cycle (resting phase / anagen phase) ([2]; skin of AGA model mice): shorten the resting phase of the hair follicle
- integrin αv expression, immunofluorescence staining (integrin αv; each JP1 intervention group, localized in the site of hair follicles): elevated
- integrin αv protein level (TP-down-regulated) (integrin αv; skin tissue, immunoblotting, JP1 P<0.01): reversed
- integrin αv expression at the end of the model (integrin αv; skin tissue, qPCR, P<0.01): returned to control levels
- integrin αv mRNA expression after JP1 intervention (integrin αv; skin tissue, qPCR, decreased in TP model group, P<0.01): significantly elevated
- penetration into skin and follicle tissue [3]: able to penetrate into the skin and enter into the follicle tissue in a targeted manner
- SRD5A2 mRNA level, difference between groups (SRD5A2): no statistically significant difference
- E2F1 mRNA level expression (E2F1): elevated
